In ChEMBL document CHEMBL3102737, “Synthesis of novel pyrano[3,2-f]quinoline, phenanthroline derivatives and studies of their interactions with proteins: an application in mammalian cell imaging” (Eur J Med Chem, 2014):

test system: HeLa; test: Protein binding in human HeLa cells at 1 mM incubated for 10 mins under dark by fluorescence microscopic analysis; assay type: ADME, cell-based; conditions: 1000 µM; call rule not given here

| PB | Compound |
| --- | --- |
| Active | CCN1c2ccc3oc(=O)ccc3c2C(=O)CC1(C)C |
| Active | CN1c2ccc3c(ccc(=O)n3C)c2C(=O)CC1(C)C |
| Active | CCN1c2ccc3c(ccc(=O)n3C)c2C(=O)CC1(C)C |
| Active | CCn1c(=O)ccc2c3c(ccc21)N(C)C(C)(C)CC3=O |
| Active | CCN1c2ccc3c(ccc(=O)n3CC)c2C(=O)CC1(C)C |

The next lines start with the compound.

| Compound | PB |
| --- | --- |
| Cn1c(=O)ccc2c3c(ccc21)NC(C)(C)CC3=O | Not Active |
| CCn1c(=O)ccc2c3c(ccc21)NC(C)(C)CC3=O | Active |
| CC1(C)CC(=O)c2c(ccc3oc(=O)ccc23)N1 | Active |
| CN1c2ccc3oc(=O)ccc3c2C(=O)CC1(C)C | Not Active |
